Source: patent US5684023A, “Benzofuranyl -and benzothienyloxazolidinones” (Bayer Aktiengesellschaft, priority 1994, dated 1997)
Converted amounts (≈) assume the structure as drawn.

Columns and labels:
Assay in all cases: MIC, serial dilution (Iso-Sensitest agar / microdilution in BH medium)
Format in all cases: cell-based
E. coli Neumann = conditions: Escherichia coli, 37° C., about 20 hours
Method: (§1) The minimum inhibitory concentrations (MIC) were determined by serial dilution methods on Iso-Sensitest agar (Oxoid). For each test substance, a number of agar plates were prepared which contained a decreasing concentration of the active compound on double dilution in each case. The agar plates were inoculated with a multipoint inoculator (Denley). For inoculation, overnight cultures of the bacilli were used which were previously diluted such that each inoculation point contained about 10^4 colony-forming particles. The inoculated agar plates were incubated at 37° C., and the bacterial growth was read off after about 20 hours. The MIC value (μg/ml) indicates the lowest active compound concentration at which no growth could be detected using the naked eye. The MIC values were determined in BH medium with the aid of the microdilution method. Each test substance was dissolved in the nutrient medium. A concentration series of the test substances was prepared in the microtiter plates by serial dilution. For inoculation, overnight cultures of the bacilli were used which had previously been diluted 1:250 in the nutrient medium. 100 μl each of inoculation solution were added to 100 μl of the diluted, active compound-containing nutrient solutions. The microtiter plates were incubated at 37° C. and read off after about 20 hours. The MIC value (μg/ml) indicates the lowest active compound concentration at which no growth could be detected.

Klebs. 57 USA = conditions: 37° C., about 20 hours
Method: as §1

Psdm. Bonn = conditions: 37° C., about 20 hours
Method: as §1

Staph 25701 = conditions: 37° C., about 20 hours
Method: as §1

Staph 9TV = conditions: 37° C., about 20 hours
Method: as §1

Staph. 133 = conditions: 37° C., about 20 hours
Method: as §1

Staph. 48N = conditions: 37° C., about 20 hours
Method: as §1

## CC(=O)NC[C@H]1CN(c2ccc3sccc3c2)C(=O)O1 [Example 9, (5S)-3-[5-Benzo[b]thiophenyl]5-acetylamino-methyl-oxazolidin-2-one]
E. coli Neumann
  MIC: > 64 µg/mL
Klebs. 57 USA
  MIC: > 64 µg/mL
Psdm. Bonn
  MIC: > 64 µg/mL
Staph 25701
  MIC: 2 µg/mL (≈ 6.89 µM)
Staph 9TV
  MIC: 2 µg/mL (≈ 6.89 µM)
Staph. 133
  MIC: 4 µg/mL (≈ 13.8 µM)
Staph. 48N
  MIC: 4 µg/mL (≈ 13.8 µM)

## CC(=O)NC[C@H]1CN(c2ccc3oc(C)cc3c2)C(=O)O1 [Example 16]
E. coli Neumann
  MIC: > 64 µg/mL
Klebs. 57 USA
  MIC: > 64 µg/mL
Psdm. Bonn
  MIC: > 64 µg/mL
Staph 25701
  MIC: 1 µg/mL (≈ 3.47 µM)
Staph 9TV
  MIC: 0.5 µg/mL (≈ 1.73 µM)
Staph. 133
  MIC: 1 µg/mL (≈ 3.47 µM)
Staph. 48N
  MIC: 1 µg/mL (≈ 3.47 µM)

## CC(=O)NC[C@H]1CN(c2ccc3c(c2)C=CS3(=O)=O)C(=O)O1 [Example 27]
E. coli Neumann
  MIC: > 64 µg/mL
Klebs. 57 USA
  MIC: > 64 µg/mL
Psdm. Bonn
  MIC: > 64 µg/mL
Staph 25701
  MIC: 16 µg/mL (≈ 49.6 µM)
Staph 9TV
  MIC: 8 µg/mL (≈ 24.8 µM)
Staph. 133
  MIC: 16 µg/mL (≈ 49.6 µM)
Staph. 48N
  MIC: 16 µg/mL (≈ 49.6 µM)
